# “And” between values parts separate entries of the source, which are not always exact repeats. Equal values may be shown once. Read-outs that look alike come from different tables or passages of the source.
# Experiments:
# [1] = Faeces concentrations and recovery after IV and PO administration to rats; assay type: in vivo, Sprague Dawley rats; conditions: 0-24 h; for dose excreted: Sprague Dawley, rat, faeces
# Protocol: Plasma and faeces concentrations after administration of Compound 1b and for compound 13 of WO 2014/016361 at 1 mg/kg by intravenous route and 10 mg/kg by oral route to Sprague Dawley rats Blank rat faeces are homogenized with 3 volumes of UHQ water until obtention of a paste. Then 100 μL of the homogenate are spiked with the molecules and precipitated with 300 μL of acetonitrile. The concentration ranges tested are: • 0.5 ng/mL to 1000 ng/mL for plasma, • 4 to 2000 ng/g for faeces, corresponding to 1 to 500 ng/mL of faeces homogenate. 3. In-Life Part After administration, the animals are placed in individual metabolic cages in order to collect faeces samples during 24 hours. Faeces samples are collected over the 24 hours of the experiment. They are precisely weighed and 3 volumes of UHQ water are added. The mixture is homogeneized until obtention of a paste. Then 100 μL of the homogenate are taken and extracted with 300 μL of Acetonitrile. Analysis is performed using LC-MS/MS determination according to previous analytical test results.
# [2] = Plasma concentrations and pharmacokinetics after IV and PO administration to rats; assay type: in vivo, Sprague Dawley rats; conditions: for % AUCextra / AUC(0-inf) / AUC(0-t) / Cmax / Tmax: DMSO, based on mean data
# Protocol: Plasma and faeces concentrations after administration of Compound 1b and for compound 13 of WO 2014/016361 at 1 mg/kg by intravenous route and 10 mg/kg by oral route to Sprague Dawley rats
# At least 8 point calibration standards are run using standard conditions which consist to LC-MS/MS system with C18 column after precipitation of proteins with acetonitrile before the start of the analytical test.
# For the plasma, 100 μL of blank rat plasma are directly spiked with the compounds before being precipitate with 300 μL of acetonitrile.
# The concentration ranges tested are: • 0.5 ng/mL to 1000 ng/mL for plasma, • 4 to 2000 ng/g for faeces, corresponding to 1 to 500 ng/mL of faeces homogenate. 3. In-Life Part
# 12 male Sprague Dawley rats around 6-7 week old are used.
# At prescribed times, blood is collected. Animals are briefly anaesthetised with Isoflurane® using an anaesthetic system (Équipement Vétérinaire Minerve) during blood samplings.
# Blood samples are centrifuged at 2500 rpm at +4° C. (between 0 and 9° C.), the plasma is removed and placed into labelled polypropylene tubes. Individual plasma samples are stored frozen at −20° C. (target temperature) until analysis.
# 100 μL of the plasma sample are taken and 300 μL of acetonitrile are added. After protein precipitation, analysis is performed using LC-MS/MS determination according to previous analytical test results.
# Concentrations of the samples are calculated directly from chromatograms after automatic integration by Analyst® 1.5.1 and expressed as ng/mL.
# Mean plasma concentrations are calculated (when calculable, i.e. n≥2) using individual concentration and are expressed with the corresponding standard deviation value and variation coefficient (when calculable, i.e. n≥3), with
# [formula] The individual plasma concentrations are tabulated for each rat and scheduled sampling time. Concentrations below the LLOQ are indicated by BLQ. All BLQ concentrations are substituted by zero for calculation of the descriptive statistics of the concentrations. 5. Results Estimation of pharmacokinetics parameters is performed using Kinetica® (Version 4.3—Thermo Electron Corporation—Philadelphia—USA). It was performed by using a one-compartment model approach, which considers the body as a single compartment in which the concentration is homogeneous. The following parameters are estimated: Cmax (ng/mL): maximal plasma concentration Tmax (h): first time to reach Cmax AUCt (ng/mL*h): area under the plasma concentration-time curve from administration up to the last quantifiable concentration at time t
# [formula] “BLQ” stands for “Below the Limit of Quantification” ([…] for plasma). Compound 1b
# [3] = IV 1 mg/kg, individual rats IV1-IV3, 1 mg/kg
# [4] = PO 10 mg/kg, individual rats PO4-PO6, 10 mg/kg
# [5] = male, Sprague Dawley, rat, plasma, IV 1 mg/kg
# [6] = male, Sprague Dawley, rat, plasma, PO 10 mg/kg
smiles,measurement,setting,value
Cc1nc(-c2cnccn2)sc1C(=O)c1cnc(N[C@H]2O[C@H](CO)[C@@H](O)[C@H](O)[C@@H]2O)s1 [13 of WO 2014/016361],Faeces concentration,[1]; [3],3303 ng/g and 3130 ng/g and 3346 ng/g
same,Faeces concentration (homogenate),[1]; [3],826 ng/mL and 783 ng/mL and 836 ng/mL
same,Recovery in faeces,[1]; [3],10.9% and 15.9%
same,Total amount of compound in faeces,[1]; [3],30095 ng and 28426 ng and 38053 ng
same,"Faeces concentration (homogenate), mean","[1]; IV 1 mg/kg, mean of 3 rats",815 ng/mL
same,"Faeces concentration, mean","[1]; IV 1 mg/kg, mean of 3 rats",3260 ng/g
same,"Total amount of compound in faeces, mean","[1]; IV 1 mg/kg, mean of 3 rats",32191 ng
same,Faeces concentration,[1]; [4],103917 ng/g and 165663 ng/g and 132537 ng/g
same,Faeces concentration (homogenate),[1]; [4],25979 ng/mL and 41416 ng/mL and 33134 ng/mL
same,Recovery in faeces,[1]; [4],57.9% and 49.3%
same,Total amount of compound in faeces,[1]; [4],1203583 ng and 1389086 ng and 1183679 ng
same,"Faeces concentration (homogenate), mean","[1]; PO 10 mg/kg, mean of 3 rats",33510 ng/mL
same,"Faeces concentration, mean","[1]; PO 10 mg/kg, mean of 3 rats",134039 ng/g
same,"Total amount of compound in faeces, mean","[1]; PO 10 mg/kg, mean of 3 rats",1258783 ng
same,dose excreted,"[1]; iv, 1 mg/kg, IV 1 mg/kg, individual rats IV1-IV3, read-out: Recovery in faeces",13.1%
same,dose excreted,"[1]; iv, 1 mg/kg, IV 1 mg/kg, mean of 3 rats, read-out: Recovery in faeces, mean",13.3%
same,dose excreted,"[1]; po, 10 mg/kg, PO 10 mg/kg, individual rats PO4-PO6, read-out: Recovery in faeces",50.1%
same,Plasma concentration,"[2]; IV 1 mg/kg, 0.083 h, individual rats IV1-IV3, 1 mg/kg",1451.7 ng/mL and 1443.6 ng/mL
same,Plasma concentration,"[2]; IV 1 mg/kg, 0.5 h, individual rats IV1-IV3, 1 mg/kg",67.6 ng/mL and 58.5 ng/mL
same,Plasma concentration,"[2]; IV 1 mg/kg, 2 h, individual rats IV1-IV3, 1 mg/kg",1.6 ng/mL and 1.8 ng/mL
same,Plasma concentration,"[2]; IV 1 mg/kg, 6 h, individual rats IV1-IV3",BLQ
same,Plasma concentration,"[2]; IV 1 mg/kg, 24 h, individual rats IV1-IV3",BLQ
same,% AUCextra,[2]; IV 1 mg/kg,0.11%
same,Plasma concentration,"[2]; PO 10 mg/kg, 0.5 h, individual rats PO4-PO6, 10 mg/kg",10.9 ng/mL and 7.0 ng/mL
same,Plasma concentration,"[2]; PO 10 mg/kg, 1 h, individual rats PO4-PO6, 10 mg/kg",4.6 ng/mL and 5.4 ng/mL
same,Plasma concentration,"[2]; PO 10 mg/kg, 2 h, individual rats PO4-PO6, 10 mg/kg",2.3 ng/mL and 2.0 ng/mL
same,Plasma concentration,"[2]; PO 10 mg/kg, 6 h, individual rats PO4-PO6, 10 mg/kg",1.9 ng/mL and 1.6 ng/mL
same,Plasma concentration,"[2]; PO 10 mg/kg, 24 h, individual rats PO4-PO6",BLQ
same,% AUCextra,[2]; PO 10 mg/kg,32.3%
same,concentration at 0.083 h,"[2]; male, Sprague Dawley, rat, plasma, iv, 1 mg/kg, IV 1 mg/kg, 0.083 h, individual rats IV1-IV3, read-out: Plasma concentration",1130 ng/mL
same,concentration at 0.083 h,"[2]; male, Sprague Dawley, rat, plasma, iv, 1 mg/kg, IV 1 mg/kg, 0.083 h, mean of 3 rats (BLQ = 0), read-out: Plasma concentration, mean",1340 ng/mL
same,concentration at 0.5 h,"[2]; male, Sprague Dawley, rat, plasma, iv, 1 mg/kg, IV 1 mg/kg, 0.5 h, individual rats IV1-IV3, read-out: Plasma concentration",56.1 ng/mL
same,concentration at 0.5 h,"[2]; male, Sprague Dawley, rat, plasma, iv, 1 mg/kg, IV 1 mg/kg, 0.5 h, mean of 3 rats (BLQ = 0), read-out: Plasma concentration, mean",60.8 ng/mL
same,concentration at 2 h,"[2]; male, Sprague Dawley, rat, plasma, iv, 1 mg/kg, IV 1 mg/kg, 2 h, individual rats IV1-IV3, read-out: Plasma concentration",1.6 ng/mL
same,concentration at 2 h,"[2]; male, Sprague Dawley, rat, plasma, iv, 1 mg/kg, IV 1 mg/kg, 2 h, mean of 3 rats (BLQ = 0), read-out: Plasma concentration, mean",1.6 ng/mL
same,concentration at 6 h,"[2]; male, Sprague Dawley, rat, plasma, iv, 1 mg/kg, IV 1 mg/kg, 6 h, mean of 3 rats (BLQ = 0), read-out: Plasma concentration, mean",0 ng/mL
same,concentration at 24 h,"[2]; male, Sprague Dawley, rat, plasma, iv, 1 mg/kg, IV 1 mg/kg, 24 h, mean of 3 rats (BLQ = 0)",0 µg/mL
same,concentration at 0.5 h,"[2]; male, Sprague Dawley, rat, plasma, po, 10 mg/kg, PO 10 mg/kg, 0.5 h, individual rats PO4-PO6, read-out: Plasma concentration",5.5 ng/mL
same,concentration at 0.5 h,"[2]; male, Sprague Dawley, rat, plasma, po, 10 mg/kg, PO 10 mg/kg, 0.5 h, mean of 3 rats (BLQ = 0), read-out: Plasma concentration, mean",7.8 ng/mL
same,concentration at 1 h,"[2]; male, Sprague Dawley, rat, plasma, po, 10 mg/kg, PO 10 mg/kg, 1 h, individual rats PO4-PO6, read-out: Plasma concentration",3.3 ng/mL
same,concentration at 1 h,"[2]; male, Sprague Dawley, rat, plasma, po, 10 mg/kg, PO 10 mg/kg, 1 h, mean of 3 rats (BLQ = 0), read-out: Plasma concentration, mean",4.4 ng/mL
same,concentration at 2 h,"[2]; male, Sprague Dawley, rat, plasma, po, 10 mg/kg, PO 10 mg/kg, 2 h, individual rats PO4-PO6, read-out: Plasma concentration",1.9 ng/mL
same,concentration at 2 h,"[2]; male, Sprague Dawley, rat, plasma, po, 10 mg/kg, PO 10 mg/kg, 2 h, mean of 3 rats (BLQ = 0), read-out: Plasma concentration, mean",2 ng/mL
same,concentration at 6 h,"[2]; male, Sprague Dawley, rat, plasma, po, 10 mg/kg, PO 10 mg/kg, 6 h, individual rats PO4-PO6, read-out: Plasma concentration",1.7 ng/mL
same,concentration at 6 h,"[2]; male, Sprague Dawley, rat, plasma, po, 10 mg/kg, PO 10 mg/kg, 6 h, mean of 3 rats (BLQ = 0), read-out: Plasma concentration, mean",1.7 ng/mL
same,concentration at 24 h,"[2]; male, Sprague Dawley, rat, plasma, po, 10 mg/kg, PO 10 mg/kg, 24 h, mean of 3 rats (BLQ = 0)",0 µg/mL
same,AUC(0-inf),[2]; [5],0.452 µg·h/mL
same,AUC(0-t),[2]; [5],0.451 µg·h/mL
same,Cmax,[2]; [5],1340 ng/mL
same,Tmax,[2]; [5],4.8 min
same,bioavailability,"[2]; male, Sprague Dawley, rat, plasma, PO 10 mg/kg vs IV 1 mg/kg, calculated based on AUCt, read-out: F (bioavailability)",0.3%
same,AUC(0-t),[2]; [6],0.016 µg·h/mL
same,Cmax,[2]; [6],7.79 ng/mL
same,Tmax,[2]; [6],30 min
same,AUC(0-inf),"[2]; male, Sprague Dawley, rat, plasma, PO 10 mg/kg, % AUC extra >20%: value given for indication",0.0233 µg·h/mL
